Values joined by “and” are separate entries in the source; they are usually repeats but may differ in a detail not shown here. Equal entries are not always repeated. “Also recorded” adds a separate entry of the source.
Columns and labels:
Assay type in all cases: cell-based, E. coli
E274Q TyrR = target: T1, E274Q TyrR (Escherichia coli, UniProt P07604, E274Q); assay: cell-based
T1 construct: expressed in transfected cells; host or cells: E. coli Nissle 1917 (EcN), plasmid pAGR102
Procedure: (§1) Everything but (Eb) medium was prepared by supplementing M9 minimal medium with 1 mM MgSO4, […]), 0.4% w/v glucose, and all non-aromatic amino acids (0.8 mM alanine, 5 mM arginine, 0.4 mM asparagine, 0.4 mM aspartate, 0.1 mM cysteine, 0.6 mM glutamate, 0.6 mM glutamine, 0.8 mM glycine, 0.2 mM histidine, 0.4 mM isoleucine, 0.8 mM leucine, 0.4 mM lysine, 0.2 mM methionine, 0.4 mM proline, 10 mM serine, 0.4 mM threonine, and 0.6 mM valine). […] Experimental cultures were prepared by diluting overnight cultures 200× into 0.6 mL fresh Eb medium supplemented with the respective ligands (Phe and Tyr) in 2 mL 96-deep well plates (Eppendorf, Hamburg, Germany). Cultures were grown for 8 h at 37° C. and 250 rpm before sampled for fluorimetry or flow cytometry analysis. All medium was supplemented with the relevant antibiotics for plasmid maintenance (34 mg/ml chloramphenicol and 100 mg/ml spectinomycin).
(§2) […] culture samples were collected and transferred to 96-well assay microplates (clear, flat bottom black, Greiner Bio-One). The fluorescence and culture absorbance (Abs) were measured using a Tecan microplate reader (Infinite M200 Pro) as previously described. The fluorescence of GFP was measured with an excitation at 483 nm and emission at 530 nm. The Abs of the samples was measured at 600 nm. The measured fluorescence was normalized by dividing by the Abs and subtracting the same ratio obtained from non-fluorescent wild-type cells (Equation 1).
(§3) Flow cytometry was performed as previously described. […] Cytometry data was gated by forward and side scatter.

E274Q+D103S TyrR = target: T2, E274Q+D103S TyrR (Escherichia coli, UniProt P07604, D103S/E274Q); assay: cell-based
T2 construct: expressed in transfected cells; host or cells: E. coli Nissle 1917 (EcN), plasmid pAGR159
T2 sequence (P07604 whole entry D103S/E274Q): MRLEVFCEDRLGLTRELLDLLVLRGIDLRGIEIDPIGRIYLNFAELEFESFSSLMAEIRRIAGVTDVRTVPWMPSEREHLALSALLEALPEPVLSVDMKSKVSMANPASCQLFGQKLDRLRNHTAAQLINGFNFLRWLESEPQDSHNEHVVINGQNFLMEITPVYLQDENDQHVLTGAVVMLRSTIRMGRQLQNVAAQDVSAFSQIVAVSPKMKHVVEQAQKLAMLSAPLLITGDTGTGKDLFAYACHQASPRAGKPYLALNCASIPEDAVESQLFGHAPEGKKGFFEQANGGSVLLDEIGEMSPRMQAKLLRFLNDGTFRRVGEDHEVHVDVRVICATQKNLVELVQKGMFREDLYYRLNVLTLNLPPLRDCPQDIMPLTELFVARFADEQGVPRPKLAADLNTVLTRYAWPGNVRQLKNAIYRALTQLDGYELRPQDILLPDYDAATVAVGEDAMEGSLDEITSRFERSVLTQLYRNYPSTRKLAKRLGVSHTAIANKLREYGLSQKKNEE
Procedure: as §1, §2, §3

E274Q+T14V TyrR = target: T3, E274Q+T14V TyrR (Escherichia coli, UniProt P07604, E274Q/T14V); assay: cell-based
T3 construct: expressed in transfected cells; host or cells: E. coli Nissle 1917 (EcN), plasmid pAGR157
T3 sequence (P07604 whole entry T14V/E274Q): as the sequence (P07604 whole entry D103S/E274Q) above, with T14V, S103D counted along it
Procedure: as §1, §2, §3

R10F TyrR = target: T4, R10F TyrR (Escherichia coli, UniProt P07604, R10F); assay: cell-based; conditions: ligand alone, listed as Phe
T4 construct: expressed in transfected cells; host or cells: E. coli Nissle 1917 (EcN), plasmid pAGR473
T4 sequence (P07604 whole entry R10F): as the sequence (P07604 whole entry D103S/E274Q) above, with R10F, S103D, Q274E counted along it
Procedure: as §1, §2, §3

wild-type TyrR = target: T5, wild-type TyrR (Escherichia coli, UniProt P07604); assay: cell-based
T5 construct: tyrR (WT); expressed in transfected cells; host or cells: E. coli Nissle 1917 (EcN)
T5 sequence (P07604 whole entry): as the sequence (P07604 whole entry D103S/E274Q) above, with S103D, Q274E counted along it
Procedure: as §1, §2, §3

E274Q+C7V TyrR = target: T6, E274Q+C7V TyrR (Escherichia coli, UniProt P07604, C7V/E274Q); assay: PtyrP-GFP reporter, E274Q+C7V TyrR (pAGR160) in EcN
T6 construct: expressed in transfected cells; host or cells: E. coli Nissle 1917 (EcN), plasmid pAGR160
T6 sequence (P07604 whole entry C7V/E274Q): as the sequence (P07604 whole entry D103S/E274Q) above, with C7V, S103D counted along it
Procedure: as §1, §2, §3

E274Q+L11G TyrR = target: T7, E274Q+L11G TyrR (Escherichia coli, UniProt P07604, E274Q/L11G); assay: PtyrP-GFP reporter, E274Q+L11G TyrR (pAGR155) in EcN
T7 construct: expressed in transfected cells; host or cells: E. coli Nissle 1917 (EcN), plasmid pAGR155
T7 sequence (P07604 whole entry L11G/E274Q): as the sequence (P07604 whole entry D103S/E274Q) above, with L11G, S103D counted along it
Procedure: as §1, §2, §3

E274Q+T14G TyrR = target: T8, E274Q+T14G TyrR (Escherichia coli, UniProt P07604, E274Q/T14G); assay: PtyrP-GFP reporter, E274Q+T14G TyrR (pAGR156) in EcN
T8 construct: expressed in transfected cells; host or cells: E. coli Nissle 1917 (EcN), plasmid pAGR156
T8 sequence (P07604 whole entry T14G/E274Q): as the sequence (P07604 whole entry D103S/E274Q) above, with T14G, S103D counted along it
Procedure: as §1, §2, §3

E274Q+D103H TyrR = target: T9, E274Q+D103H TyrR (Escherichia coli, UniProt P07604, D103H/E274Q); assay: PtyrP-GFP reporter, E274Q+D103H TyrR (pAGR158) in EcN
T9 construct: expressed in transfected cells; host or cells: E. coli Nissle 1917 (EcN), plasmid pAGR158
T9 sequence (P07604 whole entry D103H/E274Q): as the sequence (P07604 whole entry D103S/E274Q) above, with S103H counted along it
Procedure: as §1, §2, §3

[1] = target: T10, E274Q TyrR with T14V and D103S combined (Escherichia coli, UniProt P07604, D103S/E274Q/T14V); assay: PtyrP-GFP reporter, E274Q TyrR with both T14V and D103S mutations combined; conditions: both mutations (T14V, D103S) combined in E274Q TyrR
T10 construct: tyrR (WT); expressed in transfected cells; host or cells: E. coli Nissle 1917 (EcN)
T10 sequence (P07604 whole entry T14V/D103S/E274Q): as the sequence (P07604 whole entry D103S/E274Q) above, with T14V counted along it
Procedure: as §1, with “All medium was supplemented with the relevant antibiotics for plasmid maintenance (34 mg/ml chloramphenicol and 100 mg/ml spectinomycin).” left out
as §2, with “1). […]” for “1).”

[2] = wild-type TyrR, pAGR010, FIG. 1C, 8 h
[3] = E274Q+C7V TyrR, pAGR160, FIG. 10A, 8 h
[4] = E274Q+L11G TyrR, pAGR155, FIG. 10B, 8 h
[5] = E274Q+T14G TyrR, pAGR156, FIG. 10C, 8 h
[6] = E274Q+D103H TyrR, pAGR158, FIG. 10D, 8 h

T1 sequence (P07604 whole entry E274Q): as the sequence (P07604 whole entry D103S/E274Q) above, with S103D counted along it

N[C@@H](Cc1ccccc1)C(=O)O [Phenylalanine, phenylalanine]
fold induction of PtyrP (E274Q TyrR): 16 fold
EC50 (E274Q TyrR; KA (half maximal constant), pAGR102, FIG. 2C, 2D, 8 h): 40 µM and 42 µM
Fmax (E274Q TyrR; pAGR102, FIG. 2C, 2D, 8 h): 12800
Fmin (E274Q TyrR; pAGR102, FIG. 2C, 2D, 8 h): 982
n (Hill coefficient) (E274Q TyrR; pAGR102, FIG. 2C, 2D, 8 h): 2
EC50 (E274Q+D103S TyrR; KA (half maximal constant), pAGR159, FIG. 2C, 2F, 8 h): 130 µM and 128 µM
KA relative to the E274Q mutant (E274Q+D103S TyrR; higher than E274Q): 3 fold
Fmax (E274Q+D103S TyrR; pAGR159, FIG. 2C, 2F, 8 h): 10700
Fmin (E274Q+D103S TyrR; pAGR159, FIG. 2C, 2F, 8 h): 1310
n (Hill coefficient) (E274Q+D103S TyrR; pAGR159, FIG. 2C, 2F, 8 h): 0.7
EC50 (E274Q+T14V TyrR; KA (half maximal constant), pAGR157, FIG. 2C, 2E, 8 h): 80 µM and 83 µM
KA relative to the E274Q mutant (E274Q+T14V TyrR; higher than E274Q): 2 fold
Fmax (E274Q+T14V TyrR; pAGR157, FIG. 2C, 2E, 8 h): 7560
Fmin (E274Q+T14V TyrR; pAGR157, FIG. 2C, 2E, 8 h): 814
n (Hill coefficient) (E274Q+T14V TyrR; pAGR157, FIG. 2C, 2E, 8 h): 1.4
response of PtyrP (R10F TyrR): lack of response; also recorded: no significant response
fold induction of PtyrP (wild-type TyrR; overexpression of wild-type TyrR): 4 fold
Fmax (wild-type TyrR; [2]): 10500
Fmin (wild-type TyrR; [2]): 2900
n (Hill coefficient) (wild-type TyrR; [2]): 5.5
EC50 (wild-type TyrR; wild-type TyrR, pAGR010, FIG. 1C, 8 h, read-out: KA (half maximal constant)): 73 µM
EC50 (E274Q+C7V TyrR): 46 µM
Fmax (E274Q+C7V TyrR; [3]): 10800
Fmin (E274Q+C7V TyrR; [3]): 1120
n (Hill coefficient) (E274Q+C7V TyrR; [3]): 2.5
EC50 (E274Q+L11G TyrR): 45 µM
Fmax (E274Q+L11G TyrR; [4]): 12900
Fmin (E274Q+L11G TyrR; [4]): 5570
n (Hill coefficient) (E274Q+L11G TyrR; [4]): 2.2
EC50 (E274Q+T14G TyrR): 37 µM
Fmax (E274Q+T14G TyrR; [5]): 12400
Fmin (E274Q+T14G TyrR; [5]): 1430
n (Hill coefficient) (E274Q+T14G TyrR; [5]): 2.4
EC50 (E274Q+D103H TyrR): 110 µM
Fmax (E274Q+D103H TyrR; [6]): 11800
Fmin (E274Q+D103H TyrR; [6]): 2150
n (Hill coefficient) (E274Q+D103H TyrR; [6]): 1
response of PtyrP [1]: eliminated

Reference: patent US20220372585A1, “Sensors for Aromatic Compounds and Methods of Making and Using Same” (Washington University, priority 2021, published 2022)
